ChEMBL document CHEMBL4627274, “Optimized plant compound with potent anti-biofilm activity across gram-negative species” (Bioorg Med Chem, 2020)
Calls of active or inactive are those of the source. The rule behind the calls is not given here.

Columns and labels:
Pseudomonas aeruginosa [1] = experiment: Inhibition of swarming motility of Pseudomonas aeruginosa HONKR at 16 ug/mL incubated for 16 to 20 hrs relative to control; assay type: functional
Escherichia coli [2] = experiment: Inhibition of swarming motility of Escherichia coli PY31 at 16 ug/mL incubated for 16 to 20 hrs relative to control; assay type: functional
Escherichia coli [3] = experiment: Antibiofilm activity against Escherichia coli UTI89 incubated for 2 days at 23 degC followed by 1 day incubation at RT; assay type: functional
Pseudomonas aeruginosa [4] = experiment: Inhibition of swarming motility of Pseudomonas aeruginosa clinical isolates incubated for 16 to 20 hrs; assay type: functional
Escherichia coli [5] = experiment: Inhibition of swarming motility of Escherichia coli clinical isolates incubated for 16 to 20 hrs; assay type: functional
Burkholderia cepacia = experiment: Inhibition of swarming motility of Burkholderia cepacia clinical isolates incubated for 16 to 20 hrs; assay type: functional
Salmonella enterica = experiment: Inhibition of swarming motility of Salmonella enterica clinical isolates incubated for 16 to 20 hrs; assay type: functional
Pseudomonas syringae = experiment: Inhibition of swarming motility of Pseudomonas syringae incubated for 16 to 20 hrs; assay type: functional
Xanthomonas campestris = experiment: Inhibition of swarming motility of Xanthomonas campestris incubated for 16 to 20 hrs; assay type: functional
[6] = system: Pectobacterium atrosepticum; experiment: Inhibition of swarming motility of Pectobacterium atrosepticum incubated for 16 to 20 hrs; assay type: functional
Pseudomonas aeruginosa [7] = experiment: Downregulation of pilX gene expression in Pseudomonas aeruginosa by lacZ reporter gene based beta-galactosidase assay; assay type: functional, organism-based
Pseudomonas aeruginosa [8] = experiment: Potentiation of tobramycin-induced inhibition of swarming motility in Pseudomonas aeruginosa HONKR assessed as reduction in biofilm formation at 0.125 ug/mL; assay type: functional, organism-based
M14 = experiment: Cytotoxicity against human M14 cells assessed as reduction in cell viability at < 10 uM; assay type: cell-based
Pseudomonas aeruginosa [9] = experiment: Potentiation of colistin-induced inhibition of swarming motility in Pseudomonas aeruginosa HONKR assessed as reduction in biofilm formation at 0.125 ug/mL; assay type: functional, organism-based
Pseudomonas aeruginosa [10] = experiment: Down regulation of pilA expression in swarm plate cultured Pseudomonas aeruginosa PAO1 incubated for 19 to 24 hrs by Western blot analysis; assay type: functional, organism-based
Pseudomonas aeruginosa [11] = experiment: Down regulation of pilY1 expression in swarm plate cultured Pseudomonas aeruginosa PAO1 incubated for 19 to 24 hrs by Western blot analysis; assay type: functional, organism-based
Pseudomonas aeruginosa [12] = experiment: Inhibition of swarming motility of Pseudomonas aeruginosa HONKR at 10 ug incubated for 18 to 24 hrs; assay type: functional, organism-based

SMILES | inhibition at 16 µg/mL (Pseudomonas aeruginosa [1]) | inhibition at 16 µg/mL (Escherichia coli [2]) | MBIC50 (Escherichia coli [3]) | INH (Pseudomonas aeruginosa [4]) | INH (Escherichia coli [5]) | INH (Burkholderia cepacia) | INH (Salmonella enterica) | INH (Pseudomonas syringae) | INH (Xanthomonas campestris) | INH [6] | Activity (Pseudomonas aeruginosa [7]) | Activity (Pseudomonas aeruginosa [8]) | Activity (M14) | Activity (Pseudomonas aeruginosa [9]) | Activity (Pseudomonas aeruginosa [10]) | Activity (Pseudomonas aeruginosa [11]) | inhibition (Pseudomonas aeruginosa [12])
CC1(C)CC[C@]2(C(=O)O)CC[C@]3(C)C(=CC[C@@H]4[C@@]5(C)Cc6c(n[nH]c6N)C(C)(C)[C@@H]5CC[C@]43C)[C@@H]2C1 | > 90% | > 90% | 4 µg/mL | 1 µg/mL | 1 µg/mL | 0.25 µg/mL | 1 µg/mL | <0.5 µg/mL | <0.5 µg/mL | <0.5 µg/mL | Active | Active | Non-Toxic | Active | Dose-dependent effect | Dose-dependent effect | –
NC[C@H]1O[C@H](O[C@H]2[C@H](O)[C@@H](O[C@H]3O[C@H](CO)[C@@H](O)[C@H](N)[C@H]3O)[C@H](N)C[C@@H]2N)[C@H](N)C[C@@H]1O [TOBRAMYCIN] | – | – | – | 4 µg/mL | 16 µg/mL | >64 µg/mL | 8 µg/mL | – | – | – | – | – | – | – | – | – | inactive
